Assays:
[1] = target: T1, α1(V256S)β3 GABAAR (UniProt P28472+P62813, V283S); assay: Two-electrode voltage clamp in Xenopus laevis oocytes, V256S mutant; assay type: cell-based; parameters: expressed in transfected cells; host or cells: Xenopus laevis oocytes injected with cRNA; conditions: for % of desensitization (reduction of steady-state current): 1 mM GABA
Protocol: The wild-type and mutant α1β3 GABAAR were expressed in oocytes from the African clawed frog (Xenopus laevis). Frogs were purchased from Xenopus 1 (Dexter, MI), and housed and cared for in a Washington University Animal Care Facility under the supervision of the Washington University Division of Comparative Medicine. Harvesting of oocytes was conducted under the Guide for the Care and Use of Laboratory Animals as adopted and promulgated by the National Institutes of Health. The animal protocol (No. 20180191) was approved by the Animal Studies Committee of Washington University in St. Louis. The oocytes were injected with a total of 12 ng cRNA. The ratio of cRNAs was 5:1 ratio (α1:β3) to minimize the expression of β3 homomeric receptors. Following injection, the oocytes were incubated in ND96 (96 mM NaCl, 2 mM KCl, 1.8 mM CaCl2, 1 mM MgCl2, 5 mM HEPES; pH 7.4) with supplements (2.5 mM Na pyruvate, 100 U/ml penicillin, 100 μg/ml streptomycin and 50 μg/ml gentamycin) at 16°C for 2 days prior to conducting electrophysiological recordings. The electrophysiological recordings were conducted at room temperature using standard two-electrode voltage clamp. The oocytes were clamped at −60 mV. The chamber (RC-1Z, Warner Instruments, Hamden, CT) was perfused with ND96 at 5–8 ml/min. Solutions were gravity-applied from 30 ml glass syringes with glass luer slips via Teflon tubing. The current responses were amplified with an OC-725C amplifier (Warner Instruments, Hamden, CT), digitized with a Digidata 1200 series digitizer (Molecular Devices), and stored using pClamp (Molecular Devices). Current traces were analyzed with Clampfit (Molecular Devices). […] The stock solution of muscimol was made at 20 mM in ND96 and stored at 4°C. The steroids were dissolved in DMSO at 10–20 mM and stored at room temperature.

[2] = target: α1(Q242L/N408A/Y411F)β3 GABAAR (UniProt P28472+P62813, N434A/Q268L/Y437F); assay: [3H]muscimol binding to HEK cell membranes, intersubunit + α1 intrasubunit site mutant; parameters: expressed in transfected cells; host or cells: HEK293S GnTI- (ATCC CRL-3022), transient; species or system rat α1, human β3; conditions: 3 nM [3H]muscimol, 100% means no effect
Protocol: (§1) The human α1 and β3 GABAAR subunits were subcloned into pcDNA3 for molecular manipulations and cRNA synthesis. Using QuikChange Site-Directed Mutagenesis Kit (Agilent Technologies, Santa Clara, CA), a FLAG tag was first added to the α1 subunit then an 8xHis tag was added to generate the following His-FLAG tag tandem ([…]), inserted between the fourth and fifth residues of the mature peptide. The α1 and β3 subunits were then transferred into the pcDNA4/TO and pcDNA5/TO vectors (Thermo Fisher Scientific), respectively, for tetracycline inducible expression. Transient expression was done using the GABAAR subunits rat α1FLAG ([Ueno et al., 1996]) and human β3 obtained from Geoffrey White (Neurogen, Branford, CT), each were subcloned into pcDNA3 for molecular manipulations and cRNA synthesis. […]
(§2) [^3H]muscimol-binding assays were performed using a previously described method ([Chen et al., 2019]). […] Time courses of neurosteroid [^3H]muscimol binding enhancement were examined by adding 10 µM of neurosteroids (3α5αP, 3β5αP) to membranes that had been fully equilibrated with 3 nM [^3H]muscimol for 1 hr on ice; binding was then measured as a function of time at 1, 3, 10, 30, 60 min. […] Radioactivity bound to the filters was measured by liquid scintillation spectrometry using Bio-Safe II (Research Products International, Mount Prospect, IL).

[3] = target: T1, α1(V256S)β3 GABAAR; assay: [3H]muscimol binding to HEK cell membranes, desensitization-eliminating mutant; parameters: expressed in transfected cells; host or cells: HEK293S GnTI- (ATCC CRL-3022), transient; species or system rat α1, human β3; conditions: 10 μM neurosteroid; 3 nM [3H]muscimol
Protocol: as §1, §2

[4] = target: α1(Q242L)β3 GABAAR (UniProt P28472+P62813, Q268L); assay: Two-electrode voltage clamp in Xenopus laevis oocytes, Q242L mutant; assay type: cell-based; parameters: expressed in transfected cells; host or cells: Xenopus laevis oocytes injected with cRNA
Protocol: (§3) The wild-type and mutant α1β3 GABAAR were expressed in oocytes from the African clawed frog (Xenopus laevis). Frogs were purchased from Xenopus 1 (Dexter, MI), and housed and cared for in a Washington University Animal Care Facility under the supervision of the Washington University Division of Comparative Medicine. Harvesting of oocytes was conducted under the Guide for the Care and Use of Laboratory Animals as adopted and promulgated by the National Institutes of Health. The animal protocol (No. 20180191) was approved by the Animal Studies Committee of Washington University in St. Louis. The oocytes were injected with a total of 12 ng cRNA. The ratio of cRNAs was 5:1 ratio (α1:β3) to minimize the expression of β3 homomeric receptors. Following injection, the oocytes were incubated in ND96 (96 mM NaCl, 2 mM KCl, 1.8 mM CaCl2, 1 mM MgCl2, 5 mM HEPES; pH 7.4) with supplements (2.5 mM Na pyruvate, 100 U/ml penicillin, 100 μg/ml streptomycin and 50 μg/ml gentamycin) at 16°C for 2 days prior to conducting electrophysiological recordings. The electrophysiological recordings were conducted at room temperature using standard two-electrode voltage clamp. The oocytes were clamped at −60 mV. The chamber (RC-1Z, Warner Instruments, Hamden, CT) was perfused with ND96 at 5–8 ml/min. […] Current traces were analyzed with Clampfit (Molecular Devices). […]

[5] = tested on: α1(N408A/Y411F)β3 GABAAR; assay: Two-electrode voltage clamp in Xenopus laevis oocytes, N408A/Y411F mutant; assay type: cell-based; conditions: 3 μM 3β5αP, 1 mM GABA; α1(N408A/Y411F)β3 vs WT
Protocol: as §3

[6] = target: T2, α1(N408A/Y411F)β3(Y284F) GABAAR (UniProt P28472+P62813, N434A/Y309F/Y437F); assay: Two-electrode voltage clamp in Xenopus laevis oocytes, both intrasubunit sites mutated; assay type: cell-based; conditions: 3 μM 3β5αP, 1 mM GABA + 25 μM pentobarbital
T2 construct: expressed in transfected cells; host or cells: Xenopus laevis oocytes injected with cRNA
Protocol: as §3

[7] = target: T3, α1(V227W)β3 GABAAR (UniProt P28472+P62813, V253W); assay: [3H]muscimol binding to HEK cell membranes, α1 intrasubunit site mutant V227W; parameters: species or system rat α1, human β3
T3 construct: expressed in transfected cells; host or cells: HEK293S GnTI- (ATCC CRL-3022), transient
Protocol: The human α1 and β3 GABAAR subunits were subcloned into pcDNA3 for molecular manipulations and cRNA synthesis. Using QuikChange Site-Directed Mutagenesis Kit (Agilent Technologies, Santa Clara, CA), a FLAG tag was first added to the α1 subunit then an 8xHis tag was added to generate the following His-FLAG tag tandem ([…]), inserted between the fourth and fifth residues of the mature peptide. The α1 and β3 subunits were then transferred into the pcDNA4/TO and pcDNA5/TO vectors (Thermo Fisher Scientific), respectively, for tetracycline inducible expression. Transient expression was done using the GABAAR subunits rat α1FLAG ([Ueno et al., 1996]) and human β3 obtained from Geoffrey White (Neurogen, Branford, CT), each were subcloned into pcDNA3 for molecular manipulations and cRNA synthesis. Point mutations were generated using the QuikChange Site-Directed Mutagenesis Kit (Agilent) and the coding region was fully sequenced prior to use. The cDNAs were linearized with XbaI (NEB Labs, Ipswich, MA), and the cRNAs were generated using T7 mMessage mMachine (Ambion, Austin, TX).
[^3H]muscimol-binding assays were performed using a previously described method ([Chen et al., 2019]). […] Assay tubes were incubated for 1 hr on ice in the dark. […] Membranes were collected on Whatman/GF-C glass filter papers using a Brandel cell harvester (Gaithersburg, MD). To perform [^3H]muscimol binding isotherms, 100 μg/ml aliquots of membrane protein were incubated with 0.3 nM–1 μM [^3H]muscimol for 1 hr on ice in the dark. The specific activity for [^3H]muscimol concentrations from 30 nM to 1 μM was reduced to 2 Ci/mmol by dilution with nonradioactive muscimol. The membranes were collected on Whatman/GF-B glass filter papers using a vacuum manifold. […] For [^3H]muscimol-binding experiments examining competitive interactions between neurosteroids, the combined neurosteroids (0.3 μM 3α5αP or 3 μM KK148 ±30 μM KK150) or the same volume of dimethyl sulfoxide (DMSO) were added to the membranes which were then incubated with 3 nM [^3H]muscimol on ice for 1 hr. Time courses of neurosteroid [^3H]muscimol binding enhancement were examined by adding 10 µM of neurosteroids (3α5αP, 3β5αP) to membranes that had been fully equilibrated with 3 nM [^3H]muscimol for 1 hr on ice; binding was then measured as a function of time at 1, 3, 10, 30, 60 min. The membranes were collected on Whatman/GF-B glass filter papers using a vacuum manifold. Radioactivity bound to the filters was measured by liquid scintillation spectrometry using Bio-Safe II (Research Products International, Mount Prospect, IL).

CC(=O)[C@H]1CC[C@H]2[C@@H]3CC[C@H]4C[C@H](O)CC[C@]4(C)[C@H]3CC[C@]12C [3α5αP, allopregnanolone]
Inhibitory effect on steady-state current in the V256S mutant ([1]; 3 μM 3α5αP, 1 mM GABA + 40 μM pentobarbital): eliminated
Emax (% of control) of [3H]muscimol binding [2]: **105.9 ± 7.3 % of control
Enhancement of specific [3H]muscimol binding in α1(V256S)β3 compared with WT [3]: unaffected
Effect on steady-state current ([4]; 3 μM 3α5αP, 1 mM GABA + 40 μM pentobarbital, α1(Q242L)β3): small reduction

CC(=O)[C@H]1CC[C@H]2[C@@H]3CC[C@H]4C[C@@H](O)CC[C@]4(C)[C@H]3CC[C@]12C [3β5αP, epi-allopregnanolone]
% of desensitization (reduction of steady-state current) [1]: completely eliminated
Prevention of 3β5αP-enhanced desensitization by mutation [5]: ~ 67%
Enhancement of specific [3H]muscimol binding in α1(V256S)β3 compared with WT [3]: absent
Enhancement of desensitization compared with single intrasubunit site mutants [6]: less NS-enhancement of desensitization
Effect of mutation on 3β5αP-enhanced desensitization ([4]; 3 μM 3β5αP, 1 mM GABA, α1(Q242L)β3 vs WT): without effect

C#CCCO[C@H]1CC[C@H]2[C@@H]3CC[C@H]4CC5(CC[C@]4(C)[C@H]3CC[C@]12C)N=N5 [KK148]
% of desensitization (reduction of steady-state current) [1]: 0%
Hill slope for modulation of [3H]muscimol binding ([7]; 3 nM [3H]muscimol): 0.76 ± 0.31
Emax (% of control) of [3H]muscimol binding ([7]; 3 nM [3H]muscimol, 100% means no effect): **209.2 ± 7.4 % of control
EC50 ([7]; 3 nM [3H]muscimol, read-out: EC50 for modulation of [3H]muscimol binding): 1730 ± 680 nM

NCc1cc(=O)[nH]o1 [muscimol]
Bmax of [3H]muscimol binding isotherm [7]: 11.6 ± 0.4 (P > 0.99 vs. WT) pmol/mg
Kd ([7]; read-out: Kd of [3H]muscimol binding isotherm): 54.1 ± 5.8 nM
